Values quoted from earlier work in patent US20100022769A1, “NOVEL POLYNITROGENATED SYSTEMS AS ANTI-HIV AGENTS” (priority 2006, published 2010).

How the values were obtained:
CXCR4 = CXCR4 (Homo sapiens, UniProt P61073); conditions: times more active than AMD3100
X4 strain of HIV = conditions: subject infected with a X4 strain of HIV
[1] = test system: CCR5-dependent replication of HIV; conditions: virus recovered from patients who received AMD3100
[2] = development abandoned in 2001
[3] = related to its high positive charge in physiological medium

CXCR4, sequence (P61073 whole entry): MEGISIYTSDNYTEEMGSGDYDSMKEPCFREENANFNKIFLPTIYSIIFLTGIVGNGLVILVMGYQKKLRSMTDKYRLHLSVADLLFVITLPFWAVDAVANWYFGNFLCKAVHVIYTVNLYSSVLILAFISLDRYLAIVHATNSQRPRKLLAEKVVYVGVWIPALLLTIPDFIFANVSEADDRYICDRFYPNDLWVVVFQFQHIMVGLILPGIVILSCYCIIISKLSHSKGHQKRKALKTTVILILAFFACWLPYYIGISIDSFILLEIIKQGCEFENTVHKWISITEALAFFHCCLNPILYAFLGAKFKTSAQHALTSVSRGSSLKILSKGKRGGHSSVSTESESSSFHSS

Compound | activity relative to AMD3100 (CXCR4) | reduction of the viral load (X4 strain of HIV) | inhibiting the in vivo CCR5-dependent replication of HIV [1] | cardiac toxicity [2] | oral bioavailability [3]
c1ccc(CNCc2ccc(CN3CCCNCCNCCCNCC3)cc2)nc1 [AMD3465] | up to 10 times | – | – | – | –
c1cc(CN2CCCNCCNCCCNCC2)ccc1CN1CCCNCCNCCCNCC1 [AMD3100] | – | 0.8-0.9 log 10 | not effective | possible cardiac toxicity | lack of oral bioavailability
